The source of these data is US20260184708A1, “PYRIDAZINONES AND METHODS OF USE THEREOF” (GFB (ABC), LLC, priority 2017, published 2026).

The first test deals with T1, TRPC5 (Homo sapiens, UniProt Q9UL62).
T1 construct: expressed in transfected cells; host or cells: HEK 293
T1 sequence (Q9UL62 1-973): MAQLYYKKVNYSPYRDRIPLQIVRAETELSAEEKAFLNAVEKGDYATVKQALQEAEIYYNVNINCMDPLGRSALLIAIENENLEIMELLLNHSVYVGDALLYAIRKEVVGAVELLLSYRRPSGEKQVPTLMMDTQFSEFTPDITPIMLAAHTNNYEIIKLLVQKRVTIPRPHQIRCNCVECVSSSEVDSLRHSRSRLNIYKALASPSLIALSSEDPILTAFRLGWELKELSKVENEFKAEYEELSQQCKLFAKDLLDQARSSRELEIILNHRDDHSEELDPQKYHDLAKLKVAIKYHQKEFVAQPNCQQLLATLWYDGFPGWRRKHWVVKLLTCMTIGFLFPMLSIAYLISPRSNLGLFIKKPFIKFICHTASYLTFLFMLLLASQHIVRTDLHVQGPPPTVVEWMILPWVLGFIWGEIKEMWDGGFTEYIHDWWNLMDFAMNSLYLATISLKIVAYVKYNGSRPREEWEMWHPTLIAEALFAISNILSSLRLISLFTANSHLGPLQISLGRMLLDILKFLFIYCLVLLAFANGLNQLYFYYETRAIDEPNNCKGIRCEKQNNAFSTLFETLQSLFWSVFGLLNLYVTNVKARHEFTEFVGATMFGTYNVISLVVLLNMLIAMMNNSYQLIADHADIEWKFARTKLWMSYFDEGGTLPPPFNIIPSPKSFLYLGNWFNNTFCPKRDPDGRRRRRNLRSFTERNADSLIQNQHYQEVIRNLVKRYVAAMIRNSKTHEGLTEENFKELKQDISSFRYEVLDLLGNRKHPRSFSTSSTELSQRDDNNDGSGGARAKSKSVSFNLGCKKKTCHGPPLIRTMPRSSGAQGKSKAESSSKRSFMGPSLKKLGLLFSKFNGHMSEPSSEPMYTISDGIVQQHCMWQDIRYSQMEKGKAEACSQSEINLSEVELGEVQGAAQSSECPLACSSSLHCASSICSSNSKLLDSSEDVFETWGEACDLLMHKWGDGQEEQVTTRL
The test can be described thus: TRPC5 Fluorescence Assay - FLIPR format (HEK-TREx hTRPC5, Riluzole stimulation). Type of test: cell-based. The following applies: Table 7, read-out: TRPC5-FLIPR IC50. The protocol: • Cell line: ICLN-001633 • Base Cell: HEK • Channel: TRPC5 • Species: Human • Thaw ID: multiple • Passage: multiple
FLIPR Assay Buffer (Earls Balanced Salt Solution (EBSS) was prepared as follows:
Test Agent Preparation: Compounds were made up to, or supplied as, a 10 mM stock solution generally using DMSO as the vehicle. 10-point dose response curves were generated using the Echo-550 acoustic dispenser. Compound source plates were made by serially diluting compound stocks to create 10 mM, 1 mM, and 0.1 mM solutions in DMSO into Echo certified LDV plates. The Echo then serially spotted 100% DMSO stock solutions into source dose response plates to generate a 4-fold dilution scheme. 100% DMSO was added to the spotted dose response plates to bring the final volume to 5 μl. […] of the dose response stock plate was then spotted into pre-incubation and stimulation assay plates. 50 μl of pre-incubation buffer and 100 μl of stimulation buffer was then added to the plates resulting in a final assay test concentration range of 30 μM to 0.0001 μM with a final DMSO concentration of 0.3%.
Experimental Methods: Cells expressing TRPC5 (HEK-TREx hTRPC5) are plated onto 384 well, black PDL-coated microplates and maintained in TRPC5 growth media the day prior to use for experiments. TRPC5 expression is induced by the application of […] tetracycline at the time of plating. Media is removed from the plates and 10 μl of 4 μM of Fluo-4 AM (mixed with equal volume of Pluronic F-127) in EBSS is added to the cells. Cells are incubated at room temperature, protected from light, for 60-90 minutes. After the incubation period, the dye is removed and replaced with 10 μl of EBSS. Cell, pre-incubation and stimulation plates are loaded onto the FLIPR-II and the assay is initiated. The FLIPR measures a 10 second baseline and then adds 10 μl of 2× compounds (or controls). Changes in fluorescence are monitored for an additional 5 minutes. After the 5 minute pre-incubation, 20 μl of 2× Riluzole (with 1× compound or controls) is added to the cell plate. The final Riluzole stimulation concentration in the assay is 30 μM. After the Riluzole addition, changes in fluorescence are monitored for an additional 5 minutes.
Test Agent Effect: Test agent modulation of TRPC5 calcium response was determined as follows. After the Riluzole, fluorescence was monitored for a 5 minute period. The maximum relative fluorescene response (minus the control response of 1 μM of the control inhibitor) was captured and exported from the FLIPR. Test agent effect was calculated as % inhibition using the following formula: % inhibition=((RFU Test Agent−Plate Average RFU REF INHIB)/(Plate Average RFU Control−Plate Average RFU REF INHIB))×100
For orientation: IC50 means the concentration at which inhibition is half-maximal. For `CCc1ncccc1[C@H](C)n1nnc2c1CCN(c1cn[nH]c(=O)c1Cl)C2` [drawing 928], the concentration for half-maximal inhibition (IC50) lay within 0.01 to 1000 nM.

As for `O=c1[nH]ncc(N2CCc3c(ncn3Cc3cccnc3CC(F)F)C2)c1Cl` [drawing 929], the IC50 lay in the range of 0.01 to 1000 nM.

As for `O=c1[nH]ncc(N2CCc3c(ncnc3Oc3ccccc3C(F)(F)F)C2)c1Cl`, the half-inhibitory concentration (IC50) is 0.01 to 1000 nM.

Consider `NC(=O)c1nn(Cc2ccccc2C(F)F)c2c1CN(c1cn[nH]c(=O)c1Cl)CC2`, for which the IC50 is 0.01 to 1000 nM. Still for that read-out and setting: the same measure for `CN(Cc1ccccc1C(F)(F)F)c1ncnc2c1CCN(c1cn[nH]c(=O)c1Cl)C2`: 5000 to 10000 nM.

As for `COc1nn(Cc2ccccc2C(F)F)c2c1CN(c1cn[nH]c(=O)c1Cl)CC2` [drawing 931], the half-maximal inhibitory concentration (IC50) lay within 0.01 to 1000 nM.

Staying with this test, now noted: Table 9, read-out: hTRPCS-FLIPR IC50.
As to `CCc1ncccc1[C@@H](C)N1CCN(c2cn[nH]c(=O)c2Cl)CC1`, the half-maximal inhibitory concentration (IC50) is 0.01 to 1000 nM. The same measure, in the same setting: the result for `C[C@H](c1ccccc1C(F)(F)F)N1CCN(c2cn[nH]c(=O)c2Cl)CC1=O` reads 1000 to 5000 nM; that for `CCc1ncccc1[C@H](CC)N1CCN(c2cn[nH]c(=O)c2C#N)CC1`, 1000 to 5000 nM. Take `Cc1ccccc1C(O)C1CCN(c2cn[nH]c(=O)c2Cl)CC1` (centres unmarked): the IC50 was in the range of 1000 to 5000 nM. On the same count and under the same terms, the same measure for `CCc1ncccc1CC1(O)CCN(c2cn[nH]c(=O)c2Cl)CC1`: 1000 to 5000 nM. In the case of `CCc1ncccc1[C@@H](CC)N1CCN(c2cn[nH]c(=O)c2Cl)CC1`, the IC50 lay in the range of 1000 to 5000 nM.

`O=c1[nH]ncc(N2CCN(Cc3ccccc3C(F)(F)F)CC2)c1Cl` [drawing 1036]: the half-maximal inhibitory concentration (IC50) was in the range of 1000 to 5000 nM.

`CCc1ncccc1NC1CCN(c2cn[nH]c(=O)c2Cl)CC1`: the half-maximal inhibitory concentration (IC50) is 5000 to 10000 nM. Consider `C[C@H](O)c1ncccc1CN1CCN(c2cn[nH]c(=O)c2Cl)CC1`, for which the IC50 lay in the range of 0.01 to 1000 nM. With `COCc1ncccc1CN1CCN(c2cn[nH]c(=O)c2Cl)CC1` [drawing 1030], the concentration for half-maximal inhibition (IC50) lay within 0.01 to 1000 nM.

The test is the same for the next values; noted with them: Table 10, read-out: TRPCS-FLIPR IC50.
In the case of `NC[C@H](c1ccc(F)cc1C(F)(F)F)n1cnc2c1CCN(c1cn[nH]c(=O)c1Cl)C2`, the half-maximal inhibitory concentration (IC50) was in the range of 5000 to 10000 nM. Consider `CN(C)Cc1cc(F)ccc1Cn1nnc2c1CCN(c1cn[nH]c(=O)c1Cl)C2`, for which the IC50 fell in the range of 1000 to 5000 nM.

As for `COc1nn(Cc2ccccc2C(F)F)c2c1CN(c1cn[nH]c(=O)c1Cl)CC2` [drawing 1056], the 50% inhibitory concentration (IC50) lay within 0.01 to 1000 nM.

As for `CNC(=O)c1nn(Cc2ccccc2C(F)F)c2c1CN(c1cn[nH]c(=O)c1Cl)CC2`, the IC50 was 0.01 to 1000 nM. As for `O=c1[nH]ncc(N2CCc3c(nnn3Cc3ccc(F)cc3Cl)C2)c1Cl`, the concentration for half-maximal inhibition (IC50) was in the range of 0.01 to 1000 nM. Turning to `C[C@H](c1ccccc1C(F)(F)F)n1[nH]c(=O)c2c1CCN(c1cn[nH]c(=O)c1Cl)C2`, the IC50 is 0.01 to 1000 nM. The same measure, in the same setting: the result for `C[C@@H](c1ccc(F)cc1C(F)(F)F)n1[nH]c(=O)c2c1CCN(c1cn[nH]c(=O)c1Cl)C2` reads 0.01 to 1000 nM; that for `CCc1ncsc1Cn1nnc2c1CCN(c1cn[nH]c(=O)c1Cl)C2`, 0.01 to 1000 nM. Turning to `C[C@@H](c1ccc(F)cc1CN1CCOCC1)n1nnc2c1CCN(c1cn[nH]c(=O)c1Cl)C2`, the IC50 was 1000 to 5000 nM. On to `O=c1[nH]ncc(N2CCc3c(nnn3Cc3ccc(F)cc3CN3CCOCC3)C2)c1Cl`, for which the IC50 lay in the range of 1000 to 5000 nM.

Take `C[C@@H](c1ccccc1C(F)(F)F)n1nc(C(N)=O)c2c1CCN(c1cn[nH]c(=O)c1Cl)C2`: the IC50 lay within 0.01 to 1000 nM. As for `CNC(=O)c1nn([C@@H](C)c2ccccc2C(F)F)c2c1CN(c1cn[nH]c(=O)c1Cl)CC2`, the concentration for half-maximal inhibition (IC50) was 0.01 to 1000 nM. As to `CO[C@@H]1CN(c2cn[nH]c(=O)c2Cl)Cc2nnn(Cc3ccccc3C(F)F)c21`, the half-inhibitory concentration (IC50) lay in the range of 1000 to 5000 nM. As to `O=c1[nH]ncc(N2CCc3c(c(=O)[nH]n3Cc3ccccc3C(F)F)C2)c1Cl` [drawing 1052], the IC50 fell in the range of 0.01 to 1000 nM. On the same count and under the same terms, the same measure for `COC[C@@H](c1ccccc1C(F)(F)F)n1cnc2c1CCN(c1cn[nH]c(=O)c1Cl)C2`: 0.01 to 1000 nM; for `CS(=O)(=O)c1nn(Cc2ccc(F)cc2C(F)(F)F)c2c1CN(c1cn[nH]c(=O)c1Cl)CC2`: 0.01 to 1000 nM.

For the compound `Nc1nn(Cc2ccccc2C(F)(F)F)c2c1CN(c1cn[nH]c(=O)c1Cl)CC2`, the IC50 is 1000 to 5000 nM. For the compound `C[C@H]1c2nnn([C@@H](C)c3ccc(F)cc3C(F)(F)F)c2CCN1c1cn[nH]c(=O)c1Cl`, the IC50 was in the range of 0.01 to 1000 nM. With `O=c1[nH]ncc(N2CCc3c(c(CN4CCOCC4)nn3Cc3ccccc3C(F)F)C2)c1Cl`, the IC50 was in the range of 0.01 to 1000 nM. Still for that read-out and setting: the same measure for `O=c1[nH]ncc(N2Cc3cnc(Oc4ccccc4C(F)(F)F)nc3C2)c1Cl`: 0.01 to 1000 nM; for `C[C@H](c1ccc(Cl)cc1C(F)(F)F)n1nnc2c1CCN(c1cn[nH]c(=O)c1Cl)C2`: 0.01 to 1000 nM; for `COC[C@@H](c1ccc(F)cc1C(F)(F)F)n1cnc2c1CCN(c1cn[nH]c(=O)c1Cl)C2`: 1000 to 5000 nM. Take `C[C@H](c1ccc(F)cc1CN1CCOCC1)n1nnc2c1CCN(c1cn[nH]c(=O)c1Cl)C2`: the 50% inhibitory concentration (IC50) was 1000 to 5000 nM. As for `C[C@H](c1cccnc1CC(F)F)n1nnc2c1CCN(c1cn[nH]c(=O)c1Cl)C2`, the 50% inhibitory concentration (IC50) was 0.01 to 1000 nM. Take `O=c1[nH]ncc(N2CCc3c(nc(Oc4cccc(F)c4)n3Cc3ccccc3C(F)(F)F)C2)c1Cl`: the concentration for half-maximal inhibition (IC50) lay within 0.01 to 1000 nM. The same measure, in the same setting: the result for `O=c1[nH]ncc(N2CCc3c(Nc4ccc(F)cc4C(F)(F)F)n[nH]c3C2)c1Cl` reads 0.01 to 1000 nM; that for `C[C@H]1CCC[C@H]1Cn1nnc2c1CCN(c1cn[nH]c(=O)c1Cl)C2`, 0.01 to 1000 nM. Same read-out and setting: the result for `CN(c1ncc2c(n1)CN(c1cn[nH]c(=O)c1Cl)C2)c1ccccc1Cl` reads 0.01 to 1000 nM; that for `Nc1nn(Cc2ccc(F)cc2C(F)(F)F)c2c1CN(c1cn[nH]c(=O)c1Cl)CC2`, 0.01 to 1000 nM; that for `CCCOc1nc2c(n1Cc1ccccc1C(F)(F)F)CCN(c1cn[nH]c(=O)c1Cl)C2`, 0.01 to 1000 nM. On to `O=c1[nH]ncc(N2CCc3c(ncn3Cc3cccnc3CC(F)F)C2)c1Cl` [drawing 1058], for which the half-maximal inhibitory concentration (IC50) was 0.01 to 1000 nM.
